Laboratory results published in patent publication US20220031684A1, “PROPHYLACTIC EFFICACY OF SEROTONIN 4 RECEPTOR AGONISTS AGAINST STRESS” (THE TRUSTEES OF COLUMBIA UNIVERSITY IN THE CITY OF NEW YORK, priority 2019, published 2022).

Key:
[1] = test system: CA3 pyramidal cells; test: Whole-cell voltage clamp recordings of spontaneous EPSCs in CA3 slices; format: cell-based, mice; settings: NBQX 20 μM added to bath
Protocol: (§1) This chronic CORT elevation dysregulates the hypothalamic-pituitary-adrenal axis (HPA) in a manner similar to that observed in clinical depression. The dose and duration of CORT treatment was selected based on previous studies. CORT (35 μg/ml, equivalent to about 5 mg/kg/day) dissolved in 0.45% hydroxypropyl-o-cyclodextrin (0-CD) or vehicle (VEH) (0.45% j-CD) was available ad libitum in the drinking water in opaque bottles to protect it from light. VEH- and CORT-treated water was changed every 3 days to prevent possible degradation. Contextual Fear Conditioning (CFC): A 3-shock CFC procedure was administered as previously published. Briefly, mice were placed into context A and administered 3 2-s shocks (0.75 mA) at 180 s, 240 s or 300 s following placement into context A. Mice were removed from the context 15 s following the termination of shock (at 317 s). For context retrieval, mice were placed back into context A for 300 s. Electrophysiology: Electrophysiology was conducted as previously described. Statistical Analysis: Results from data analyses are expressed as means±SEM. Alpha was set to 0.05 for all analyses. Data were analyzed using GraphPad Prism v7.0 or v8.0. For all experiments, unless otherwise noted, one- or two-way ANOVAs with repeated-measures were applied to the data as appropriate. Significant main effects and/or interactions were followed by Fisher's PLSD post hoc analysis or unpaired t-tests. Drugs: All drugs were prepared in physiological saline and all injections were administered intraperitoneally (i.p.) in volumes of 0.1 cc per […] body weight unless otherwise noted. Fluoxetine hydrochloride (Flx): Flx (BioTrend Chemicals AG, BG197, Zurich, Germany) was administered in the drinking water (18 mg/kg/day) for 3 weeks before the start of CORT. […] (R,S)-ketamine (K): (R,S)-ketamine (Ketaset III, Ketamine HCl injection, Fort Dodge Animal Health, Fort Dodge, Iowa) was administered in a single dose at 30 mg/kg of body weight 1 week before the start of CFC. […] PF-04995274: PF-04995274 (Sigma, Catalog No. 1331782-27-4, St. Louis, Mo.) was administered a single dose at 3 or 10 mg/kg of body weight 1 week before the start of CFC. PF-04995274 was dissolved in saline using an ultrasonic homogenizer (BioLogics, Model 3000, Manassas, Va.). Osmotic minipump implantation: ALZET osmotic minipumps (Model 2004, […], 28 days) were implanted subcutaneously under isoflurane anesthesia as previously described [S2]. Osmotic minipumps were rotated under the skin two to three times per week. Behavioral Assays: All experiments were approved by the Institutional Animal Care and Use Committee (IACUC) at the New York Psychiatric Institute (NYSPI). Elevated Plus Maze (EPM): Testing was performed as previously described [S3]. Briefly, the maze is a plus-cross-shaped apparatus consisting of four arms, two open and two enclosed by walls, linked by a central platform at a height of 50 cm from the floor. Mice were individually placed in the center of the maze facing an open arm and were allowed to explore the maze for 5 min. The time spent in and the number of entries into the open arms was used as an anxiety index. Videos were scored using ANY-maze behavior tracking software (Stoelting, Wood Dale, Ill.). Novelty-Suppressed Feeding: The NSF is a conflict test that elicits competing motivations: the drive to eat and the fear of venturing into the center of a brightly lit arena. The latency to feed is used as an index of anxiety-like behavior, because classical anxiolytic drugs decrease this measure. The NSF test was carried out during an 8 min period as previously described [S3]. Briefly, the testing apparatus consisted of a plastic box (50×50×20 cm), the floor of which was covered with approximately 2 cm of bedding. For 129S6/SvEv experiments, mice were food restricted for 12 h. For the C57BL/6N experiments, mice were food restricted for 24 h. […]

[2] = test system: 129S6/SvEv mice; test: 3-shock contextual fear conditioning (CFC); format: in vivo
Protocol: as §1

[3] = test system: 129S6/SvEv mice; test: Forced swim test (FST) after CFC; format: in vivo
Protocol: as §1

[4] = FIG. 4 cohort, Male, FIG. 4C, RMANOVA, Fisher's LSD
[5] = FIG. 4 cohort, Male, FIG. 4D, ANOVA, Fisher's LSD
[6] = FIG. 4 cohort, Male, FIG. 4F, RMANOVA, Fisher's LSD
[7] = FIG. 4 cohort, Male, FIG. 4G, ANOVA, Fisher's LSD

| SMILES | large bursts of EPSCs in saline-treated mice [1] | p, CFC Re-exposure Freezing (%), PF04995274 (3 mg/kg) vs. PF04995274 (10 mg/kg) [2, 4] | p, CFC Re-exposure Freezing (%), Saline vs. PF04995274 (3 mg/kg) [2, 4] | p, CFC Re-exposure Freezing (%), Saline vs. PF04995274 (10 mg/kg) [2, 4] | p, CFC Re-exposure, PF04995274 (3 mg/kg) vs. PF04995274 (10 mg/kg) [2, 5] | p, CFC Re-exposure, Saline vs. PF04995274 (3 mg/kg) [2, 5] | p, CFC Re-exposure, Saline vs. PF04995274 (10 mg/kg) [2, 5] | freezing during CFC training ([2]; male 129S6/SvEv, (R,S)-ketamine 30, prucalopride 3 or 10, PF-04995274 3 or 10 mg/kg, 1 week before CFC, vs saline) | freezing at re-exposure to the training context (learned fear) vs saline ([2]; male 129S6/SvEv, single i.p. injection 1 week before CFC, re-exposure 5 days later, 10 mg/kg) | p, FST Day 2 Immobility Time (sec), PF04995274 (3 mg/kg) vs. PF04995274 (10 mg/kg) [3, 6] | p, FST Day 2 Immobility Time (sec), Saline vs. PF04995274 (3 mg/kg) [3, 6] | p, FST Day 2 Immobility Time (sec), Saline vs. PF04995274 (10 mg/kg) [3, 6] | p, FST Day 2 Immobility Time (min 3-6) (sec), Saline vs. PF04995274 (3 mg/kg) [3, 7] | p, FST Day 2 Immobility Time (min 3-6) (sec), Saline vs. PF04995274 (10 mg/kg) [3, 7] | immobility, FST day 1 ([3]; male 129S6/SvEv, (R,S)-ketamine 30, prucalopride 3 or 10, PF-04995274 3 or 10 mg/kg) | immobility time, FST day 2 vs saline ([3]; male 129S6/SvEv, single injection 1 week before CFC, 10 mg/kg) |
| --- | --- | --- | --- | --- | --- | --- | --- | --- | --- | --- | --- | --- | --- | --- | --- | --- |
| NS(=O)(=O)c1cccc2c1c([N+](=O)[O-])cc1nc(O)c(O)nc12 [NBQX, 2,3-dihydroxy-6-nitro-7-sulfamoyl-benzo[f]quinoxaline] | completely blocked |  |  |  |  |  |  |  |  |  |  |  |  |  |  |  |
| OC1(CN2CCC(COc3noc4cccc(OC5CCOC5)c34)CC2)CCOCC1 (stereo not shown) [PF-04995274] |  | 0.0619 | 0.6871 | 0.0255 | 0.0619 | 0.6871 | 0.0255 | comparable levels of freezing | attenuated learned fear | 0.0941 | 0.1259 | 0.0023 | 0.1050 | 0.0027 | comparable levels of immobility | decreased immobility time |
